Tests used:
Type in all cases: cell-based, human
9mer specific T cells = experiment: Co-culture of THP-1 with 9mer specific T cells, cytokine production; set-up: IFNγ / IL-10 / IL-12p70 / IL-13 / IL-1β / IL-2 / IL-5 / IL-6 / TNF-α: unit not given here; conditions: for IFNγ production, with 9mer specific T cells: Listeria MOI of 10, optical density
Source text: (§1) Analysis Kits and Reagents: Analysis of cytokine concentrations in culture medium used the U-plex assay kits from Meso Scale Discovery. Expression of T cell receptors specific for E7 peptide bound to HLA-A*02:01 was detected using HLA-A*02:01/peptide tetramers from MBL International (Woburn, Mass.).
(§2) There were several possible explanations for the muted response with THP-1 cells infected with ADSX11: including failure of THP-1 cells to process the 10mer epitope from full length E7 protein, failure of the THP-1 cells to present the processed 10mer E7 peptide on HLA-A*02:01, insufficient incubation of the infected cells to allow synthesis of the E7 protein and accumulation of the MHC/peptide complex on the cell surface, and/or an inhibitory effect of gentamicin. A culture of T cells specific for the 9mer epitope was used as well as a new culture of 10mer specific T cells. The THP-1 cells were infected as before with XFL7 or ADXS11-001 at an MOI of 10. After treatment with gentamicin for one hour, the cells were cultured overnight in the absence of gentamicin. The next day the infected cells were collected and co-cultured with 9mer or 10mer specific T cells. These co-cultures were set up in standard X-VIVO 15 and X-VIVO 15 without gentamicin or phenol red. The co-cultures were incubated overnight before collecting medium for cytokine analysis. The medium was tested for IFNγ concentrations and optical density. […] In addition, the 10mer specific T cells recognized ADXS11-001 infected THP-1 when there was no gentamicin in the medium.
(§3) To further explore the importance of the overnight incubation of infected THP-1, THP-1 cells infected overnight were compared to THP-1 cells infected for 2 hours. T cells specific for 9mer and 10mer peptides were co-cultured with each of the THP-1 cells and with uninfected or peptide exposed THP-1. As before, medium was collected after an overnight co-culture and cytokines were measured.
(§4) Optimization of infection time required for E7 presentation. THP-1 infected and cultured overnight compared to THP-1 infected for 2 hours and used after gentamicin treatment. Both 9-mer specific T cells and 10-mer specific T cells used. Assays were performed using X-VIVO 15 medium without gentamicin. The following cytokines were measured: IFNγ, IL-1β, IL-2, IL-10, IL-12p70, IL-13, IL-5, IL-6, TNFα.

THP-1 cells = experiment: Intracellular cytokine staining of THP-1 cells; conditions: FIGS. 3A-3C, FIG. 10
Description: (§5) To identify cytokines that can be used to measure potency of a Listeria-based therapeutic the following tests were performed. Intracellular cytokine staining was used to detect T cells specificity. THP-1 were incubated with peptide overnight, mixed with T cells from above and centrifuged. The collected cells were then co-cultured at 37° C. for 1 hour. Brefeldin A was then added and the cells were co-cultured for another 4 hours. Brefeldin A inhibits secretion and permits analysis by flow cytometry. Cell were then stained to identify dead cells and CD8+ cells. The cell were then fixed and stained for IFNγ (using fix and permeabilization buffer from eBioscience/Invitrogen).
Intracellular cytokine staining of THP-1 cells.

[1] = test system: E7 (11-20) specific T cells; experiment: Initial THP-1 / T cell co-culture cytokine production (T cell culture with 6% E7 (11-20) specific T cells); set-up: IFNγ / TNF-α / IL-10 / IL-12p70 / IL-13 / IL-1β / IL-2 / IL-4 / IL-6 / IL-8: unit not given here
Description: as §1
Infection of THP-1: The THP-1 cell line was infected with either ADXS11-001 or XFL7 by incubating 10^6 cells with dilutions of bacteria in a 1 mL volume of RPMI 1640 10% FBS. Incubation with bacteria was at 37° C., 5% CO2 for the indicated times, then extracellular bacteria were eliminated by washing and incubation in the presence of 50 μg/mL gentamicin for 1 hour at 37° C. After incubation with gentamicin the cells were washed again and resuspended to the desired cell concentration.
T cell cytokine expression analysis. An initial experiment using THP-1 as antigen presenting cells was performed using a T cell culture containing 6% E7 (11-20) specific T cells based upon staining with HLA-A*02:01/peptide tetramer. THP-1 cells were infected as described using two different concentrations of bacteria and then co-cultured with the T cells. Controls included uninfected THP-1 cells and THP-1 cells incubated with (exposed to) either the 9mer or 10mer peptide for one hour. After an overnight co-culture, medium was collected for analysis of cytokines.

PBMC = experiment: Cytokine release by donor PBMC cultured with peptide; set-up: unit not given beside the values; conditions: release on antigen
Description: Peripheral blood mononuclear cells (PBMCs) samples were collected from three human HLA-A*02:01 donors: 358, 213, and 224. The peripheral blood mononuclear cells (PBMCs) were cultured with one of two E7 peptides: […] (9mer or 1T; SEQ ID NO: 100) or […] (10mer or 2T; SEQ ID NO: 101). After 10 days culture, the PBMCs were tested for E7 peptide binding staining and cytokine release.

10mer specific T cells = experiment: Co-culture of THP-1 with 10mer specific T cells, cytokine production; set-up: IFNγ / IL-10 / IL-13 / IL-1β / IL-2 / IL-5 / IL-6 / TNF-α: unit not given here; conditions: for IFNγ production, with 10mer specific T cells: Listeria MOI of 10, optical density
Source text: as §1, §2, §3, §4

T cells = experiment: Intracellular cytokine staining of T cells; conditions: Brefeldin A, FIG. 9
Description: as §5

[2] = 9mer T cells + peptide exposed THP-1, overnight co-culture
[3] = T cells and THP-1 incubated with peptide one hour, overnight co-culture
[4] = 10mer T cells + peptide exposed THP-1, overnight co-culture

With YMLDLQPETT [10mer] the “IFNγ production, with 9mer specific T cells” value (9mer specific T cells; 50 μg/mL gentamicin) was 0.075, the IFNγ (9mer specific T cells; [2]) was 112 and the IL-1β (9mer specific T cells; [2]) was “<LLOD”. The IL-2 (9mer specific T cells; [2]) was 3, the IL-5 (9mer specific T cells; [2]) was “<LLOD” and the IL-6 (9mer specific T cells; [2]) was 0. The IL-10 (9mer specific T cells; [2]) was “<LLOD”, the IL-12p70 (9mer specific T cells; [2]) was 0 and the IL-13 (9mer specific T cells; [2]) was “<LLOD”. The TNF-α (9mer specific T cells; [2]) was 2, the “IFNγ production, with 9mer specific T cells” value (9mer specific T cells; Without gentamicin) was 0.066 and the “Basal IFNγ in THP-1 cells after stimulation with peptide” value (THP-1 cells) was “not detectable”. It also gave an IFNγ [1, 3] of 17140.7, an IL-1β [1, 3] of 7.0 and an IL-2 [1, 3] of 315.2. It also gave an IL-4 [1, 3] of 11.9, an IL-6 [1, 3] of 19.6 and an IL-8 [1, 3] of 6099.7. For the same sequence, the IL-10 [1, 3] was 34.0, the IL-12p70 [1, 3] was 7.4 and the IL-13 [1, 3] was 508.4. The TNF-α [1, 3] was 1192.3, the “T cell cytokine response to peptide presented by THP-1” value ([1]; relative to T cells co-cultured with control or uninfected THP-1 cells) was “elevated levels of IFNγ, IL-13, IL-2, IL-8 and TNFα” and the “IFNγ Mean” value (PBMC; donor 213 PBMC cultured with 1T peptide) was 86.6. The “IFNγ Mean” value (PBMC; donor 358 PBMC stimulated with 1T) was 183.9, the “IFNγ Mean” value (PBMC; donor 358 PBMC stimulated with 2T) was 359.8 and the “IFNγ production, with 10mer specific T cells” value (10mer specific T cells; 50 μg/mL gentamicin) was 0.226. The IFNγ (10mer specific T cells; [4]) was 23328, the IL-1β (10mer specific T cells; [4]) was 3 and the IL-2 (10mer specific T cells; [4]) was 452. The IL-5 (10mer specific T cells; [4]) was 1, the IL-6 (10mer specific T cells; [4]) was 31 and the IL-10 (10mer specific T cells; [4]) was 12. The IL-12p70 (10mer specific T cells; [4]) was “<LLOD”, the IL-13 (10mer specific T cells; [4]) was 23 and the TNF-α (10mer specific T cells; [4]) was 460. The “IFNγ production, with 10mer specific T cells” value (10mer specific T cells; Without gentamicin) was 0.200 and the “IFNγ in T cells after stimulation with peptide” value (T cells) was “higher levels of IFNγ”.

Source: patent US20210239681A1, “COMPOSITIONS AND METHODS FOR […] OF […]-BASED IMMUNOTHERAPEUTICS” (ADVAXIS, INC., priority 2018, published 2021)
